Experiments:
[1] = system: western corn rootworm (Chrysomelidae: Diabrotica virgifera virgifera); assay: Plant emergence, shoot height and root mass, corn seed treatment against western corn rootworm (B.2.2); type: in vivo; conditions: for % Control (Based on root mass relative to infested and uninfested control) / % Control (Based on shoot height relative to infested and uninfested control) / Mean Root Mass / Mean Shoot Height: 7 days after infestation
Procedure: B.2.2 Plant Emergence, Shoot Height and Root Mass in Treatment Against Western Corn Rootworm (Chrysomelidae: Diabrotica virgifera virgifera). The compounds according to the invention, in formulated form, and other diamide compounds (chlorantraniliprole: Altacor® and Coragen®) were tested for activity against western corn rootworm. Pots were filled with soil mixture (1:1 loamy sand:sand) and watered prior to treatment and planting. Formulations were diluted in distilled water and then applied to 20 g corn seed in a volume of 188 μl in a Hege 11 liquid seed treater and spun for 30 s. One seed was planted per pot 1-3 days after treatment. Five replicates (pots) were prepared for each treatment. Pots were arranged in a randomized complete block design in the greenhouse and top watered daily. At 5-6 days after planting (DAP), 12 western corn rootworm larvae (2nd instar) were infested in each pot. After infestation, pots were maintained in a growth chamber (26° C., 10 hours light:14 hours dark) and bottom-watered as needed. Plant emergence and shoot phytotoxicity were evaluated 5 DAP. Shoot height and fresh root mass were evaluated 7 days after infestation (DAI).

[2] = system: Black Cutworm (Agrotis ipsilon); assay: whole plant or invertebrate; type: in vivo; conditions: 72 h, 5 ppm a.i./soil (w/w), second-instar larvae, 3 days after infestation, read-out: mortality in comparison with untreated controls
[3] = system: Western Corn Rootworm (Diabrotica virgifera virgifera); assay: whole plant or invertebrate; type: in vivo; conditions: 72 h, 50 ppm a.i./soil (w/w), second-instar larvae, 3 days after infestation, read-out: mortality in comparison with untreated controls
[4] = system: seedcorn maggot (Anthomyiidae: Delia platura); assay: Root length of cucumber in treatment against seedcorn maggot (B.2.1); conditions: 9 days after treatment, 7 days after infestation; for % Control (Relative to infested and uninfested solvent blank): cucumber root length; for Mean Root Length: cucumber
[5] = Table EXP-B.2.2-1, 0.5 g ai/kg seed, 13 days after planting
[6] = Table EXP-B.2.2-1, 1.0 g ai/kg seed, 13 days after planting
[7] = Table EXP-B.2.2-1, corn seed treatment, 0.5 g ai/kg seed
[8] = Table EXP-B.2.2-1, corn seed treatment, 1.0 g ai/kg seed
[9] = Table EXP-B.2.2-2, 0.5 g ai/kg seed, 12 days after planting
[10] = Table EXP-B.2.2-2, 1.0 g ai/kg seed, 12 days after planting
[11] = Table EXP-B.2.2-2, corn seed treatment, 0.5 g ai/kg seed
[12] = Table EXP-B.2.2-2, corn seed treatment, 1.0 g ai/kg seed
[13] = Table EXP-B.2.2-2, 1.5 g ai/kg seed, 12 days after planting

Row | SMILES | % Control (Based on root mass relative to infested and uninfested control) [1, 5] [%] | % Control (Based on shoot height relative to infested and uninfested control) [1, 5] [%] | Mean Root Mass [1, 5] [g] | Mean Shoot Height [1, 5] [cm] | % Control (Based on root mass relative to infested and uninfested control) [1, 6] [%] | % Control (Based on shoot height relative to infested and uninfested control) [1, 6] [%] | Mean Root Mass [1, 6] [g] | Mean Shoot Height [1, 6] [cm] | Plant Emergence (%) 5 days after planting [1, 7] [%] | Plant Emergence (%) 5 days after planting [1, 8] [%] | % Control (Based on root mass relative to infested and uninfested control) [1, 9] [%] | % Control (Based on shoot height relative to infested and uninfested control) [1, 9] [%] | Mean Root Mass [1, 9] [g] | Mean Shoot Height [1, 9] [cm] | % Control (Based on root mass relative to infested and uninfested control) [1, 10] [%] | Plant Emergence (%) 5 days after planting [1, 11] [%] | mortality at 5 ppm [2] [%] | mortality at 50 ppm [3] [%] | % Control (Relative to infested and uninfested solvent blank) ([4]; rate 1 ppm) [%] | Mean Root Length ([4]; rate 1 ppm) [cm] | also measured
1 | CCS(CC)=NC(=O)c1cc(Cl)cc(C)c1NC(=O)c1cc(C(F)(F)F)nn1-c1ncccc1Cl [Compound I-11, 2-(3-chloro-2-pyridyl)-N-[2-methyl-4-chloro-6-[(diethyl-λ^4-sulfanylidene)carbamoyl]phenyl]-5-(trifluoromethyl)pyrazole-3-carboxamide] | 100 | 36 | 0.680 | 26.7 | 100 | 100 | 0.678 | 33.8 | 100 | 100 | 12 | 49 | 0.490 | 27.3 | 48 | 100 | > 70 | > 70 | – | – | % Control (Based on shoot height relative to infested and uninfested control) [1, 10]: 100%; Mean Root Mass [1, 10]: 0.631 g; Mean Shoot Height [1, 10]: 33.8 cm; Plant Emergence (%) 5 days after planting [1, 12]: 100%
2 | CCS(CC)=NC(=O)c1cc(Cl)cc(Cl)c1NC(=O)c1cc(C(F)(F)F)nn1-c1ncccc1Cl [Compound I-16, 2-(3-chloro-2-pyridyl)-N-[2,4-dichloro-6-[(diethyl-λ^4-sulfanylidene)carbamoyl]phenyl]-5-(trifluoromethyl)pyrazole-3-carboxamide] | 37 | 76 | 0.541 | 30.2 | 40 | 58 | 0.547 | 28.6 | 100 | 100 | 38 | 100 | 0.590 | 35.3 | 68 | 100 | > 70 | > 70 | 100 | 11.0 | % Control (Based on shoot height relative to infested and uninfested control) [1, 10]: 83%; Mean Root Mass [1, 10]: 0.705 g; Mean Shoot Height [1, 10]: 31.2 cm; Plant Emergence (%) 5 days after planting [1, 12]: 100%
3 | Cc1cc(Cl)cc(C(=O)N=S(C(C)C)C(C)C)c1NC(=O)c1cc(C(F)(F)F)nn1-c1ncccc1Cl [Compound I-21, 2-(3-chloro-2-pyridyl)-N-[2-methyl-4-chloro-6-[(bis-2-propyl-λ^4-sulfanylidene)carbamoyl]phenyl]-5-(trifluoromethyl)pyrazole-3-carboxamide] | 100 | 49 | 0.688 | 27.8 | 100 | 69 | 0.701 | 29.6 | 100 | 100 | 33 | 86 | 0.570 | 31.6 | – | 100 | > 70 | > 70 | – | – | % Control (Based on root mass relative to infested and uninfested control) [1, 13]: 40%; % Control (Based on shoot height relative to infested and uninfested control) [1, 13]: 83%; Mean Root Mass [1, 13]: 0.598 g; Mean Shoot Height [1, 13]: 31.2 cm; Plant Emergence (%) 5 days after planting ([1]; Table EXP-B.2.2-2, corn seed treatment, 1.5 g ai/kg seed): 100%
4 | CC(C)S(=NC(=O)c1cc(Cl)cc(Cl)c1NC(=O)c1cc(C(F)(F)F)nn1-c1ncccc1Cl)C(C)C [Compound I-26, 2-(3-chloro-2-pyridyl)-N-[2,4-dichloro-6-[(bis-2-propyl-λ^4-sulfanylidene)carbamoyl]phenyl]-5-(trifluoromethyl)pyrazole-3-carboxamide] | – | – | – | – | – | – | – | – | – | – | – | – | – | – | – | – | > 70 | > 70 | – | – | –
5 | CNC(=O)c1cc(Cl)cc(C)c1NC(=O)c1cc(Br)nn1-c1ncccc1Cl [chlorantraniliprole] | – | – | – | – | – | – | – | – | – | – | – | – | – | – | – | – | – | – | 49 | 8.4 | % Control (Relative to infested and uninfested solvent blank) ([4]; rate 10 ppm): 63%; Mean Root Length ([4]; rate 10 ppm): 9.0 cm
6 | CNC(=O)c1cc(C#N)cc(C)c1NC(=O)c1cc(Br)nn1-c1ncccc1Cl [cyantraniliprole] | – | – | – | – | – | – | – | – | – | – | – | – | – | – | – | – | – | – | 19 | 7.1 | % Control (Relative to infested and uninfested solvent blank) ([4]; rate 10 ppm): 93%; Mean Root Length ([4]; rate 10 ppm): 10.3 cm
